According to patent US4882322A, “3β,17β-hydroxy-substituted steroids and related steroidal compounds” (Merrell Dow Pharmaceuticals Inc., priority 1988, dated 1989):
Read-outs that look alike come from different tables or passages of the source.

Experiments:
JAr Tumor Aromatase = biological target: T1, JAr Tumor Aromatase (Homo sapiens, UniProt P11511); assay: Time-dependent JAr tumor aromatase activity (in vitro inhibition; 3H2O release from 1-[3H]-androstenedione, cytosol of JAr tumor); assay type: biochemical; conditions: for inhibition at 5 µM: Conc. 5 μM; for inhibition at 5 µM / inhibition at 25 µM: read-out: Relative Percent Inhibition; for inhibition at 25 µM: Conc. 25 μM
T1 construct: from 35 mg of tumor was the source for both aromatase; from tissue; host or cells: Tumor grown from subcutaneously injected human JAr choriocarcinoma cells in athymic nude mice; 800×g supernatant ('cytosol')
T1 sequence (P11511 1-503): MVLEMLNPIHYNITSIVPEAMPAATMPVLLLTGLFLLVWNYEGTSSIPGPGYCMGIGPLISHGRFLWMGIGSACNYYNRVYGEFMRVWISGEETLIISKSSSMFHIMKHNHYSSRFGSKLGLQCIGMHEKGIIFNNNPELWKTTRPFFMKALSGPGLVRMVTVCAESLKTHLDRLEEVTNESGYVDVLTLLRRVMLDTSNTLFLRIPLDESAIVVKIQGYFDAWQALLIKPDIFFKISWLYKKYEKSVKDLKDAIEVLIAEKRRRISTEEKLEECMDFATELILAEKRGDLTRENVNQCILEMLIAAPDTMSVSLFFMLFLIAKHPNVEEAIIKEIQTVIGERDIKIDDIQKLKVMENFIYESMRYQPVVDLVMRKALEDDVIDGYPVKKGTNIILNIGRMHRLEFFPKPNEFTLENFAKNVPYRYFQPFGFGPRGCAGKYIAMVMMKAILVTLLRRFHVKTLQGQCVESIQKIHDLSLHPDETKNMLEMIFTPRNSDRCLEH
Protocol: The aromatase inhibitory action of the compounds of the present invention may be determined using a radioenzymatic assay. An aromatase enzyme preparation is employed from the microsomal fraction isolated from human placenta. Stereospecific elimination of 1β and 2β tritium labels from androgen substrates such as testosterone or androstenedione, and the subsequent appearance of tritated water, is utilized to measure the rate of enzyme reaction during in vitro incubations.
In evaluating the inhibition of aromatase activity, the compounds of the present invention were tested according to the folowing procedure adapted from Johnston et al., J Steroid Biochem., Vol. 20, No. 6A, 1221 (1984) and Johnston, Steroids, Vol. 50, No. 1-3, 105 (1987). Athymic nude mice were subcutaneously injected with 1.5×10^6 human choriocarcinoma trophoblast (JAr) cells, which develop tumor masses of about 1 g in 10 days. Tumor aromatase activity was determined in vitro by measuring the ^3 H2 O resulting from the stereospecific release of 1-β ^3 H from 1-[^3 H]-androstenedione. Cytosol (800×g) from 35 mg of tumor was the source for both aromatase and 3β-steroid dehydrogenase (SDH):isomerase activity. The test compounds were incubated for varying intervals (0-3 hrs) with aromatase prior to the addition of 34 pmol 1-[3H]-androstenedione to start a 30 min aromatase activity assay. When 10-(2-propynyl)-19-norandrost-5-ene-3β,17β-diol was tested in vitro by this procedure the following results were observed: […]

[1] = test system: Aromatase Activity of JAr Tumor Xenografts in Nude Mice; assay: In vivo inhibition of aromatase activity of JAr tumor xenografts in nude mice; set-up: species or system human (JAr tumor cells) in athymic nude mice; conditions: vehicle PEG-200, 6 hr post-treatment
Protocol: In evaluating the inhibition of aromatase activity, the compounds of the present invention were tested according to the folowing procedure adapted from Johnston et al., J Steroid Biochem., Vol. 20, No. 6A, 1221 (1984) and Johnston, Steroids, Vol. 50, No. 1-3, 105 (1987). Athymic nude mice were subcutaneously injected with 1.5×10^6 human choriocarcinoma trophoblast (JAr) cells, which develop tumor masses of about 1 g in 10 days. Tumor aromatase activity was determined in vitro by measuring the ^3 H2 O resulting from the stereospecific release of 1-β ^3 H from 1-[^3 H]-androstenedione. Cytosol (800×g) from 35 mg of tumor was the source for both aromatase and 3β-steroid dehydrogenase (SDH):isomerase activity. The test compounds were incubated for varying intervals (0-3 hrs) with aromatase prior to the addition of 34 pmol 1-[3H]-androstenedione to start a 30 min aromatase activity assay. When 10-(2-propynyl)-19-norandrost-5-ene-3β,17β-diol was tested in vitro by this procedure the following results were observed:
The compound 10-(2-propynyl)-19-norandrost-5-ene-3β,17β-diol was also evaluated in vivo by treating nude mice with trophoblast tumors. At 6 hr post-treatment intervals, tumor aromatase activity was determined in an in vitro assay as discussed above. The vehicle for oral dosing was PEG-200.

C#CC[C@]12CC[C@H](O)CC1=CC[C@@H]1[C@@H]2CC[C@]2(C)[C@@H](O)CC[C@@H]12 [10-(2-propynyl)-19-norandrost-5-ene-3β,17β-diol]
inhibition at 5 µM (JAr Tumor Aromatase; preincubation time 0 hr): 15.1% | inhibition at 5 µM (JAr Tumor Aromatase; preincubation time 1 hr): 0% | inhibition at 5 µM (JAr Tumor Aromatase; preincubation time 2 hr): 66.9% | inhibition at 5 µM (JAr Tumor Aromatase; preincubation time 3 hr): 71.9% | inhibition at 25 µM (JAr Tumor Aromatase; preincubation time 0 hr): 33.4% | inhibition at 25 µM (JAr Tumor Aromatase; preincubation time 1 hr): 0% | inhibition at 25 µM (JAr Tumor Aromatase; preincubation time 2 hr): 86.5% | inhibition at 25 µM (JAr Tumor Aromatase; preincubation time 3 hr): 84.9% | type of aromatase inhibition (biphase response) (JAr Tumor Aromatase; preincubation 0-3 hr, after enzymatic processing to a more reactive component): time-dependent inhibition of aromatase | Relative % Inhibition 6 hr Post-treatment ([1]; 7 mg/kg oral): 5.9 ± 3.0% | Relative % Inhibition 6 hr Post-treatment ([1]; 10 mg/kg oral): 27.5 ± 1.5% | Relative % Inhibition 6 hr Post-treatment ([1]; 30 mg/kg oral): 53.4 ± 7.8%
